Reference: patent US20120101083A1, “S1P1 AGONISTS COMPRISING A BICYCLIC N-CONTAINING RING” (GLAXO GROUP LIMITED, priority 2009, published 2012)

Legend:
[1] = target: T1, human Endothelial Differentiation Gene 1 (EDG1) (Homo sapiens, UniProt P21453); assay: S1P1 Tango assay, 384 well format; type: cell-based; settings: EDG1-bla/U2OS cells
T1 construct: TEV protease cleavage site; Gal4-VP16 transcription factor (printed Ga14-VP16); expressed in transfected cells; host or cells: Tango GPCR-bla U2OS parental cell line (EDG1-bla/U2OS)
Experimental: S1P1 Tango Assay—384 Well Format
Recombinant EDG1-bla/U2OS cells (contain the human Endothelial Differentiation Gene 1 (EDG1) linked to a TEV protease site and a Ga14-VP16 transcription factor stably integrated into the Tango GPCR-bla U20S parental cell line) were harvested from growth medium and passaged into assay medium (Invitrogen Freestyle Expression Medium). The cells were starved for 24 hours at 37° C., 5% CO2, harvested and resuspended in assay medium at a density of ˜200,000 cells/ml. All test compounds were dissolved in DMSO at a concentration of 10 mM and were prepared in 100% DMSO to provide 10 point dose response curves. Test compounds prepared by Bravo (Velocity11) were added to wells in columns 2-11 and 13-22; DMSO was added to wells in columns 12 and 23 as unstimulated controls and assay medium was added to wells in columns 1 and 24 as cell-free controls. […]
10 μl of 6× substrate mixture (LiveBLAzer™-FRET B/G substrate (CCF4-AM) Cat # K1096 from Invitrogen, Inc.) was added to each well using Bravo and the plates incubated at room temperature for 2 h in the dark. The plate was finally read on EnVision using one excitation channel (409 nm) and two emission channels (460 nm and 530 nm).
The blue/green emission ratio (460 nm/530 nm) was calculated for each well, by dividing the background-subtracted Blue emission values by the background-subtracted Green emission values. […]

[2] = target: T2, human Endothelial Differentiation G-protein Coupled Receptor 3 (EDG3) (Homo sapiens, UniProt Q99500); assay: S1P3 GeneBlazer assay; type: cell-based; settings: EDG3-Ga15-NFAT-bla HEK 293T cells
T2 construct: expressed in transfected cells; host or cells: GeneBLAzer Ga15-NFAT-bla HEK 293T cell line
Experimental: GeneBLAzer EDG3-Ga15-NFAT-bla HEK 293T cells (contain the human Endothelial Differentiation G-protein Coupled Receptor 3 (EDG3) and a beta-lactamase reporter gene under control of a NFAT response element and a promiscuous G Protein, Ga15, stably integrated into the GeneBLAzer Ga15-NFAT-bla HEK 293T cell line) were suspended in assay medium (99% DMEM, 1% Dialyzed FBS, 0.1 mM NEAA, 25 mM HEPES (pH 7.3), 100 U/ml penicillin, 100 μg/ml streptomycin) at a density of 312, 500 cells/ml. Add 100 μl/well of the assay medium to the cell-free control wells (column 12) and 100 μl/well of the cell suspension to the test compound wells (row 2-8, column 1-10), the unstimulated control wells (DMSO) (column 11), and stimulated control wells (S1P) (row 1, column 1-10) in a Corning black-well, clear bottom 96-well plate. Cells were incubated at 37° C., 5% CO2 for 24 h. […]
After incubation at 37° C., 5% CO2 for 5 h, 25 μl of 6× substrate mixture (6 μl Solution A (1 mg LiveBLAzer™-FRET B/G Substrate (CCF4-AM) in 912 μl DMSO) plus 60 μl Solution B plus 934 μl Solution C) was added to each well and incubate at room temperature for 2 h in dark. The plate was finally read on EnVision for two emission channels (460 nm and 530 nm). […]

circulating lymphocytes = settings: animals and man; cited from earlier work
[3] = clinical studies, first 24 hours of treatment; cited from earlier work

T2 sequence (Q99500 whole entry): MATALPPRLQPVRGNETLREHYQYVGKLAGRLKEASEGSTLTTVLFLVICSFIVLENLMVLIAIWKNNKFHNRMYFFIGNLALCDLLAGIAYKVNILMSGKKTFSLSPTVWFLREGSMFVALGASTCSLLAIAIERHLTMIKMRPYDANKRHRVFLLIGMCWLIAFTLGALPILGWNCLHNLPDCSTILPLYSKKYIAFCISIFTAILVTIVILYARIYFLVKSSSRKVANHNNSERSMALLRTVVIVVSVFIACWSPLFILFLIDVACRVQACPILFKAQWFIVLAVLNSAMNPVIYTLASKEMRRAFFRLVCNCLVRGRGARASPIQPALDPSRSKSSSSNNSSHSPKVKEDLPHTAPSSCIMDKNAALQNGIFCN
T1 sequence (P21453 whole entry, the tested form may be a part): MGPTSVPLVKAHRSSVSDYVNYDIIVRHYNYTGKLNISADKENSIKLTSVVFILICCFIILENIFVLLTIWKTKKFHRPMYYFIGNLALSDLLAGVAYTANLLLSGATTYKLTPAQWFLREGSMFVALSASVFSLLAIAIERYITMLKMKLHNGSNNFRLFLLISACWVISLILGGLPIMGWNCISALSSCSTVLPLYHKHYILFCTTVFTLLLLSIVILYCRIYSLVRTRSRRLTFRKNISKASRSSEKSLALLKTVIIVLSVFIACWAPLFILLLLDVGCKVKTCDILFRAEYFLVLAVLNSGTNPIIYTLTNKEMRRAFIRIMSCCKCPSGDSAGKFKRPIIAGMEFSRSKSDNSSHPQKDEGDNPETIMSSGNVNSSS

EC50 [1] [µM] | EC50 [2] [µM] | SMILES | circulating lymphocytes (circulating lymphocytes) | bradycardia [3]
< 1 | > 10 | CCc1c(-c2cnc(-c3ccc(OC(C)C)c(C#N)c3)s2)ccc2c1CCN(C(CO)CO)C2 [Example 204, 5-(5-{5-ethyl-2-[2-hydroxy-1-(hydroxymethyl)ethyl]-1,2,3,4-tetrahydro-6-isoquinolinyl}-1,3-thiazol-2-yl)-2-[(1-methylethyl)oxy]benzonitrile] | – | –
< 0.1 | > 10 | CCc1c(-c2nnc(-c3ccc(OC(C)C)c(C#N)c3)s2)ccc2c1CCN(C(CO)CO)C2 [Example 205, 5-(5-{5-ethyl-2-[2-hydroxy-1-(hydroxymethyl)ethyl]-1,2,3,4-tetrahydro-6-isoquinolinyl}-1,3,4-thiadiazol-2-yl)-2-[(1-methylethyl)oxy]benzonitrile] | – | –
– | – | CCCCCCCCc1ccc(CCC(N)(CO)CO)cc1 [FTY720] | reduce circulating lymphocytes in animals and man | bradycardia in the first 24 hours of treatment
